{"source": "patent US4826838A", "about": "“Analgesic carbocyclic and heterocyclic carbonylmethylene-and carbonylmethypipidines and-pyrrolidines” (Sandoz Ltd., priority 1985, dated 1989)", "key": {"[1]": {"test_system": "5-HT3 receptors", "conditions": "isolated rabbit vagus nerve; cited from earlier work"}, "[2]": {"test_system": "behavioral activity", "experiment": "Studies A to D taken together (ethological and endocrinological tests)", "assay_type": "in vivo, mouse", "experimental": "Male intruder mice show only low levels of social activity and high levels of defensive activity when introduced into the home cage of an individually housed adult male. Benzodiazepines and related drugs increase approaxh activities in this situation (Dixon 1982, Triangle 21: 95-105 (1982) Krsiak. M. Br. J. Pharmacol. 55: 141-150 (1975)). Compounds of formula I, in oral doses of 0.1 to 1 mg/kg increase approach oriented social activity.\nStretched attend postures in mice signify an ambivalent form of conflict which is inhibited by putative anxiolytics (Kaeserman HP Psychopharmacology (1986) 89: 31-37). Compounds of formula I, when given 2 hours before, reduce the duration of stretched attend postures to mice placed on a novel elevated platform.\nCompounds of formula I reduce such stress-induced corticosterone at 1 mg/kg p.o. whilst doses from 0.1 to 0.3 increase plasma levels of this hormone."}, "[3]": {"test_system": "5-HT3 receptor", "conditions": "cantharidine blister base; cited from earlier work"}, "[4]": {"test_system": "migraine attack", "conditions": "slow i.v. injection of 10 mg; cited from earlier work"}}, "data": [{"smiles": "CCN(CC)C(=O)[C@@H]1C=C2c3cccc4[nH]c(Br)c(c34)C[C@H]2N(C)C1", "note": "[BOL -148]", "values": [{"measurement": "blockade of the action of serotonin on the C fibre action potential", "setting": "[1]", "value": "not blocked"}]}, {"smiles": "CSc1ccc2c(c1)C(N1CCN(C)CC1)Cc1ccccc1S2", "note": "(stereo not drawn) [metitepine]", "values": [{"measurement": "blockade of the action of serotonin on the C fibre action potential", "setting": "[1]", "value": "not blocked"}]}, {"smiles": "CC[C@@H](CO)NC(=O)[C@@H]1C=C2c3cccc4c3c(cn4C)C[C@H]2N(C)C1", "note": "[methysergide]", "values": [{"measurement": "blockade of the action of serotonin on the C fibre action potential", "setting": "[1]", "value": "not blocked"}]}, {"smiles": "CN1C2CCC1CC(=CC(=O)c1c[nH]c3ccccc13)C2", "note": "(single isomer, unassigned; (-)) [compound G, (-)-Indol-3-yl-carbonyl-methylenyl-3-(8-methyl-8-azabicyclo[3.2.1]octane)]", "values": [{"measurement": "relative activity among the compounds of formula I", "setting": "[2]", "value": "most active"}]}, {"smiles": "CCN(CC)C(=O)[C@@H]1C=C2c3cccc4[nH]c(Br)c(c34)C[C@H]2N(C)C1", "note": "[its bromo derivative]", "values": [{"measurement": "inhibition of the algesic action of serotonin", "setting": "[3]", "value": "not inhibited"}]}, {"smiles": "CN1C2CCC1CC(=CC(=O)c1c[nH]c3ccccc13)C2", "note": "(single isomer, unassigned; (+)) [compound F, (+)-Indol-3-yl-carbonyl-methylenyl-3-(8-methyl-8-azabicyclo[3.2.1]octane)]", "values": [{"measurement": "relative activity among the compounds of formula I", "setting": "[2]", "value": "most active"}]}, {"smiles": "CN1C2CCC1CC(=CC(=O)c1c[nH]c3ccccc13)C2", "note": "[compound E, Indol-3-yl-carbonyl-methylenyl-3-(8-methyl-8-azabicyclo[3.2.1]octane)]", "values": [{"measurement": "relative activity among the compounds of formula I", "setting": "[2]", "value": "most active"}]}, {"smiles": "CCN(CC)C(=O)[C@@H]1C=C2c3cccc4[nH]cc(c34)C[C@H]2N(C)C1", "note": "[lysergic acid diethylamide]", "values": [{"measurement": "inhibition of the algesic action of serotonin", "setting": "[3]", "value": "not inhibited"}]}, {"smiles": "CCN(CC)CCNC(=O)c1cc(Cl)c(N)cc1OC", "note": "[Metoclopramide]", "values": [{"measurement": "effect on a migraine attack", "setting": "[4]", "value": "immediate beneficial effect"}]}]}
